Values quoted from earlier work in patent US20050113271A1, “Automatic dishwashing detergent with improved glass anti-corrosion properties II” (priority 2002, published 2005).
Where two headings read alike, the source gives them in different places. Blank lines part the entries; values can stand above or below the compound they belong to.

- Solubility (20° C.): 4 g/l (20° C.)
Compound: Zinc acetylacetonate

Compound: [Cl-].[Cl-].[Zn+2] [Zinc chloride]
- Solubility (25° C.): 4320 g/l (25° C.)

- Solubility (in words) (20° C.): Virtually insoluble (20° C.)
Compound: Zinc hydroxycarbonate
